Columns and labels:
[1] = test system: human having a gastrointestinal disorder that includes fecal incontinence; assay: Treatment of ambulatory patients having fecal incontinence with daily oral medicine (case examples); format: in vivo; details: Example 3: person, sprain lumbar spine, 75 mg imipramine pamoate daily without stool softener, after several days
From the text: (§1) The patient takes TYLOX, oxycontin, neurotin, aspirin, and anti-coagulants.

human patient = assay: Side effects noted in patients under daily oral treatment (case examples); details: Example 3: 75 mg imipramine pamoate daily without stool softener
From the text: as §1

## CN(C)CCCN1c2ccccc2CCc2ccccc21.CN(C)CCCN1c2ccccc2CCc2ccccc21.O=C(O)c1cc2ccccc2c(Cc2c(O)c(C(=O)O)cc3ccccc23)c1O [imipramine pamoate, 5-[3-(dimethylamino)propyl]-10,11-dihydro-5H-dibenzazepine 4,4-methlyenebis-(3-hydroxy-2-napthoate)]
[1]
  bladder and bowel functions as noted by patient: full control of bladder and bowel functions
Human patient
  side effects: develops constipation
